biological target: T1, androgen receptor (Homo sapiens, UniProt P10275); assay: AR Antagonist Cell Assay (MMTV-luciferase reporter, DHT-stimulated); format: cell-based; settings: MDA-MB453-MMTV clone 54-19 cells; antagonism of 100 pM DHT, 17 hr, luciferase readout
T1 sequence (P10275 1-920 Q868H): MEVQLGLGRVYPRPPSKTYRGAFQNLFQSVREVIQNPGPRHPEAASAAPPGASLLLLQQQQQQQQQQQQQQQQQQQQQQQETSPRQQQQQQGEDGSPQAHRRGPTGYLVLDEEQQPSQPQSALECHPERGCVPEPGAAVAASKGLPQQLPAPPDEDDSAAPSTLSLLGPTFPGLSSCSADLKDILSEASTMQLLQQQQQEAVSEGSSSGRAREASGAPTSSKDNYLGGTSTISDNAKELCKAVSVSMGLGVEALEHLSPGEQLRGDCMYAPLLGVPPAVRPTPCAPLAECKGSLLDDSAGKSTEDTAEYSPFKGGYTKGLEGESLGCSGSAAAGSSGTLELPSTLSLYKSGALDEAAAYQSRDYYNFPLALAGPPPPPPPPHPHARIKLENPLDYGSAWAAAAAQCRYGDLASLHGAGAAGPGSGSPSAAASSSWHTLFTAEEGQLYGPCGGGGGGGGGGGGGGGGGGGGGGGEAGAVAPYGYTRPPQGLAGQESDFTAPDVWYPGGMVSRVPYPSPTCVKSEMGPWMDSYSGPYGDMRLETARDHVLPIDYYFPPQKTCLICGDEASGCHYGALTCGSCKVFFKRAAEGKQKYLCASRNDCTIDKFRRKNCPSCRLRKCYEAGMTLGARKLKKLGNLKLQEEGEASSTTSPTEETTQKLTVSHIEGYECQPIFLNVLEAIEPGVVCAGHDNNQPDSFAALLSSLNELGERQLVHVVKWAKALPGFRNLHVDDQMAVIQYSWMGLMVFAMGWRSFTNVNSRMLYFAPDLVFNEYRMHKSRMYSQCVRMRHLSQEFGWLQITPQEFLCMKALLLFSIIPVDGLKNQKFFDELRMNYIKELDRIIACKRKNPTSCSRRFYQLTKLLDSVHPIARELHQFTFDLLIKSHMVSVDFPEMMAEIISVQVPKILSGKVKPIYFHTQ
Description: The compounds ability to antagonize the effects of androgen on the androgen receptor were determined in the protocol described immediately below.
Experimental Procedure for AR Antagonist Cell Assay
Cell line: MDA-MB453-MMTV clone 54–19. This cell line is a stable transfected cell line with MDA-MB453 cell background (human breast tumor cell expressing high level of androgen receptor). A MMTV minimal promoter containing ARE was first cloned in front of a firefly luciferase reporter gene. Then the cascade was cloned into transfection vector pUV120puro. Electroporation method was used for transfecting MDA-MB-453 cell. Puromycin resistant stable cell line was selected.
Cell Culture Media and Reagents:
Culture medium: DMEM (high glucose, Gibco cat #: 11960-044), 10% FBS, and 1% L-glutamine
Plating medium: DMEM (phenol red free), 10% charcoal treated HyClone serum, 1% L-glutamine
Assay medium: DMEM (phenol red free), 1% charcoal treated HyClone serum, 1% L-glutamine, and 1% penicillin/streptomycin
3× luciferase buffer: 2% beta-mercaptoethanol, 0.6% ATP, 0.0135% luciferine in cell lysis buffer
• 1. Cells are maintained in culture medium, splitting cells when they reach 80–90% confluence • 2. To test compounds, 10,000 cells/well are plated to opaque 96 cell culture plate in 100 ul/well plating medium, culture for overnight at 37° C. in cell culture incubator • 3. Carefully remove plating medium, then add 80 ul/well of pre-warmed assay medium, add 10 ul/well testing compound (final concentration at 10 uM or 1 uM), incubate at 37° C. for 30 minutes • 4. Add 10 ul/well freshly prepared DHT (final concentration at 100 pM) to each well, incubate at 37° C. for 17 hr (overnight) • 5. Add 50 ul/well 3× luciferase buffer, incubate at room temperature for 5 minutes, then count on Luminometer.
The fold induction over background by 100 pM DHT in the absence of testing compounds is standardized as 100% and experimental result is expressed as percentage of inhibition by testing compounds.

Row | SMILES | IC50
1 | CCCCN(CCCC)S(=O)(=O)c1ccc(Cc2ccc3oc(=O)cc(C(F)(F)F)c3c2)cc1 [Example 97, N,N-Dibutyl-4-(2-oxo-4-trifluoromethyl-2H-chromen-6-ylmethyl)benzenesulfonamide] | 6.23 µM
2 | O=c1cc(C(F)(F)F)c2cc(Cc3ccc(S(=O)(=O)Nc4ccccc4Br)cc3)ccc2[nH]1 [Example 40, N-(2-Bromophenyl)-4-(2-oxo-4-trifluoromethyl-1,2-dihydroquinolin-6-ylmethyl)-benzenesulfonamide] | 5.61 µM
3 | O=c1cc(C(F)(F)F)c2cc(Cc3ccc(S(=O)(=O)NCc4cc(C(F)(F)F)ccc4F)cc3)ccc2[nH]1 [Example 90, N-(2-Fluoro-5-trifluoromethylbenzyl)-4-(2-oxo-4-trifluoromethyl-1,2-dihydroquinolin-6-ylmethyl)-benzenesutfonamide] | 2.62 µM
4 | CC(C)(C)CCNS(=O)(=O)c1ccc(Cc2ccc3[nH]c(=O)cc(C(F)(F)F)c3c2)cc1 [Example 54, N-(3,3-Dimethylbutyl)-4-(2-oxo-4-trifluoromethyl-1,2-dihydroquinolin-6-ylmethyl)-benzenesulfonamide] | > 10 µM
5 | COc1ccc(OC)c(NS(=O)(=O)c2ccc(Cc3ccc4oc(=O)cc(C(F)(F)F)c4c3)cc2)c1 [Example 140, N-(2,5-Dimethoxyphenyl)-4-(2-oxo-4-trifluoromethyl-2H-chromen-6-ylmethyl)-benzenesulfonamide] | 7.3 µM
6 | O=c1cc(C(F)(F)F)c2cc(Cc3ccc(S(=O)(=O)N(CCO)C4CCCCC4)cc3)ccc2[nH]1 [Example 4, N-Cyclohexyl-N-(2-hydroxyethyl)-4-(2-oxo-4-trifluoromethyl-1,2-dihydroquinolin-6-ylmethyl)benzenesulfonamide] | > 10 µM
7 | COc1cccc(NS(=O)(=O)c2ccc(Cc3ccc4[nH]c(=O)cc(C(F)(F)F)c4c3)cc2)c1 [Example 50, N-(3-Methoxyphenyl)-4-(2-oxo-4-trifluoromethyl-1,2-dihydroquinolin-6-ylmethyl)-benzenesulfonamide] | > 10 µM
8 | O=c1cc(C(F)(F)F)c2cc(Cc3ccc(S(=O)(=O)NCc4ccccc4OC(F)F)cc3)ccc2[nH]1 [Example 83, N-(2-Difluoromethoxybenzyl)-4-(2-oxo-4-trifluoromethyl-1,2-dihydroquinolin-6-ylmethyl)-benzenesulfonamide] | > 10 µM
9 | O=c1cc(C(F)(F)F)c2cc(Cc3ccc(S(=O)(=O)NCCc4ccc(Cl)cc4)cc3)ccc2[nH]1 [Example 74, N-[2-(4-Chlorophenyl)ethyl]-4-(2-oxo-4-trifluoromethyl-1,2-dihydroquinolin-6-ylmethyl)-benzenesulfonamide] | > 10 µM
10 | O=c1cc(C(F)(F)F)c2cc(Cc3ccc(S(=O)(=O)NCc4ccc(F)cc4Cl)cc3)ccc2o1 [Example 198] | 5.93 µM
11 | O=c1cc(C(F)(F)F)c2cc(Cc3ccc(S(=O)(=O)NCCN4CCCC4)cc3)ccc2[nH]1 [Example 56, 4-(2-Oxo-4-trifluoromethyl-1,2-dihydroquinolin-6-ylmethyl)-N-(2-pyrrolidin-1-yl-ethyl)-benzenesulfonamide] | 3.64 µM
12 | O=c1cc(C(F)(F)F)c2cc(Cc3ccc(S(=O)(=O)Nc4cccc5c4CCC5)cc3)ccc2o1 [Example 128, N-Indan-4-yl-4-(2-oxo-4-trifluoromethyl-2H-chromen-6-ylmethyl)benzenesulfonamide] | 4.77 µM
13 | Cc1ccccc1CNS(=O)(=O)c1ccc(Cc2ccc3oc(=O)cc(C(F)(F)F)c3c2)cc1 [Example 171, N-(2-Methylbenzyl)-4-(2-oxo-4-trifluoromethyl-2H-chromen-6-ylmethyl)benzenesulfonamide] | 9.62 µM
14 | CCOc1ccc(NS(=O)(=O)c2ccc(Cc3ccc4oc(=O)cc(C(F)(F)F)c4c3)cc2)cc1 [Example 150, N-(4-Ethoxyphenyl)-4-(2-oxo-4-trifluoromethyl-2H-chromen-6-ylmethyl)-benzenesulfonamide] | 7.2 µM
15 | CCCN(CCO)S(=O)(=O)c1ccc(Cc2ccc3[nH]c(=O)cc(C(F)(F)F)c3c2)cc1 [Example 8, N-(2-Hydroxyethyl)-4-(2-oxo-4-trifluoromethyl-1,2-dihydroquinolin-6-ylmethyl)-N-propylbenzenesulfonamide] | 3.25 µM
16 | O=c1cc(C(F)(F)F)c2cc(Cc3ccc(S(=O)(=O)NCc4ccccc4Sc4ccccc4CO)cc3)ccc2[nH]1 [Example 94, N-[2-(2-Hydroxymethyl-phenylsulfanyl)benzyl]-4-(2-oxo-4-trifluoromethyl-1,2-dihydroquinolin-6-ylmethyl)-benzenesulfonamide] | > 10 µM
17 | COc1ccc(OC)c(NS(=O)(=O)c2ccc(Cc3ccc4[nH]c(=O)cc(C(F)(F)F)c4c3)cc2)c1 [Example 33, N-(2,5-Dimethoxyphenyl)-4-(2-oxo-4-trifluoromethyl-1,2-dihydroquinolin-6-ylmethyl)-benzenesulfonamide] | > 10 µM
18 | O=c1cc(C(F)(F)F)c2cc(Cc3ccc(S(=O)(=O)NCc4ccc(Cl)cc4Cl)cc3)ccc2[nH]1 [Example 85, N-(2,4-Dichlorobenzyl)-4-(2-oxo-4-trifluoromethyl-1,2-dihydroquinolin-6-ylmethyl)-benzenesulfonamide] | ~10 µM
19 | CCCN(CC1CC1)S(=O)(=O)c1ccc(Cc2ccc3oc(=O)cc(C(F)(F)F)c3c2)cc1 [Example 104, N-Cyclopropylmethyl-4-(2-oxo-4-trifluoromethyl-2H-chromen-6-ylmethyl)-N-propylbenzenesulfonamide] | 1.79 µM
20 | O=c1cc(C(F)(F)F)c2cc(Cc3ccc(S(=O)(=O)NCCO)cc3)ccc2[nH]1 [Example 51, N-(2-Hydroxyethyl)-4-(2-oxo-4-trifluoromethyl-1,2-dihydroquinolin-6-ylmethyl)-benzenesulfonamide] | 2.18 µM
21 | CN(CCC#N)S(=O)(=O)c1ccc(Cc2ccc3oc(=O)cc(C(F)(F)F)c3c2)cc1 [Example 108, N-(2-Cyanoethyl)-N-methyl-4-(2-oxo-4-trifluoromethyl-2H-chromen-6-ylmethyl)-benzenesulfonamide] | 4.72 µM
22 | O=c1cc(C(F)(F)F)c2cc(Cc3ccc(S(=O)(=O)N(Cc4ccccc4)Cc4ccccc4)cc3)ccc2o1 [Example 109, N,N-Dibenzyl-4-(2-oxo-4-trifluoromethyl-2H-chromen-6-ylmethyl)benzenesulfonamide] | 8.26 µM
23 | Cc1ccc(F)cc1NS(=O)(=O)c1ccc(Cc2ccc3[nH]c(=O)cc(C(F)(F)F)c3c2)cc1 [Example 25] | 1.12 µM
24 | N#CCc1ccc(NS(=O)(=O)c2ccc(Cc3ccc4oc(=O)cc(C(F)(F)F)c4c3)cc2)cc1 [Example 126, N-(4-Cyanomethylphenyl)-4-(2-oxo-4-trifluoromethyl-2H-chromen-6-ylmethyl)-benzenesulfonamide] | 1.89 µM
25 | CCOc1ccccc1CNS(=O)(=O)c1ccc(Cc2ccc3[nH]c(=O)cc(C(F)(F)F)c3c2)cc1 [Example 71, N-(2-Ethoxybenzyl)-4-(2-oxo-4-trifluoromethyl-1,2-dihydroquinolino-6-ylmethyl)-benzenesulfonamide] | > 10 µM
26 | O=c1cc(C(F)(F)F)c2cc(Cc3ccc(S(=O)(=O)NCCC4=CCCCC4)cc3)ccc2o1 [Example 175, N-(2-Cyclohex-1-enylethyl)-4-(2-oxo-4-trifluoromethyl-2H-chromen-6-ylmethyl)benzenesulfonamide] | 8.5 µM
27 | CCOC(=O)CC(NS(=O)(=O)c1ccc(Cc2ccc3[nH]c(=O)cc(C(F)(F)F)c3c2)cc1)c1ccccc1 (stereo not drawn) [Example 91, 3-[4-(2-Oxo-4-trifiuoromethyl-1,2-dihydroquinolin-6-ylmethyl)-benzenesulfonylamino]-3-phenylpropionic acid ethyl ester] | > 10 µM

Reference: patent US7098340B2, “Benzyl sulfonamide derivatives” (Warner Lambert Company LLC, priority 2003, dated 2006)
